Data published in ChEMBL document CHEMBL1136076, “A new class of histamine H(3)-receptor antagonists: synthesis and structure-activity relationships of 7,8,9,10-tetrahydro-6H-cyclohepta[b]quinolines” (Bioorg Med Chem Lett, 2003).

How the values were obtained:
[1] = biological target: Histamine H3 receptor (Rattus norvegicus, UniProt Q9QYN8); assay: Binding affinity towards rat cortical Histamine H3 receptor
[2] = biological target: T1, Histamine H3 receptor (Homo sapiens, UniProt Q9Y5N1); assay: Binding affinity towards cloned human H3L receptor
[3] = biological target: T1, Histamine H3 receptor; assay: Compound was tested for its binding affinity towards human H3L receptor
[4] = biological target: Histamine H1 receptor (Homo sapiens, UniProt P35367); assay: Compound was tested for its binding affinity towards human H1 receptor
[5] = biological target: Histamine H2 receptor (Homo sapiens, UniProt P25021); assay: Compound was tested for its binding affinity towards human H2 receptor
Histamine H2 receptor, sequence (P25021 whole entry): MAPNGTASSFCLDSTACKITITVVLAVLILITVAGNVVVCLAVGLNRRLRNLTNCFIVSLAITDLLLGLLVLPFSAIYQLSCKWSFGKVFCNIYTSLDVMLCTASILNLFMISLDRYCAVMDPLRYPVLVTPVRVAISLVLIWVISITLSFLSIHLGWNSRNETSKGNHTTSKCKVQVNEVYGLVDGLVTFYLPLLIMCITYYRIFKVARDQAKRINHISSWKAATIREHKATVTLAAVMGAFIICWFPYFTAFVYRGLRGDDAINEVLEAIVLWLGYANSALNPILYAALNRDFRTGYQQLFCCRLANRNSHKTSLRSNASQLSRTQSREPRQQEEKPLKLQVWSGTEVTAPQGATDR

Histamine H1 receptor, sequence (P35367 whole entry): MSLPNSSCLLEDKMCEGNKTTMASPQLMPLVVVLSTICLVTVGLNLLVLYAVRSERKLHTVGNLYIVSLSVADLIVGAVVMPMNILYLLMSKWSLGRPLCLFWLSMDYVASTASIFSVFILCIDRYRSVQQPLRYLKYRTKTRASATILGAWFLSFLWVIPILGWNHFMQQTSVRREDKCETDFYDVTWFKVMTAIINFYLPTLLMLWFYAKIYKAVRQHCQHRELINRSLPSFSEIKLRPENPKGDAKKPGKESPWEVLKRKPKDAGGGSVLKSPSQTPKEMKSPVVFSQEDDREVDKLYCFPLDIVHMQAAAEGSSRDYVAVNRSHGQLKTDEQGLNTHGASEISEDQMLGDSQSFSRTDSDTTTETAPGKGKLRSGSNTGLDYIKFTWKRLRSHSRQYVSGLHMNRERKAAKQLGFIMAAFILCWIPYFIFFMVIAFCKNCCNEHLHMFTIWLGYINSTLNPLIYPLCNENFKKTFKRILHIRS
T1 sequence (Q9Y5N1 whole entry): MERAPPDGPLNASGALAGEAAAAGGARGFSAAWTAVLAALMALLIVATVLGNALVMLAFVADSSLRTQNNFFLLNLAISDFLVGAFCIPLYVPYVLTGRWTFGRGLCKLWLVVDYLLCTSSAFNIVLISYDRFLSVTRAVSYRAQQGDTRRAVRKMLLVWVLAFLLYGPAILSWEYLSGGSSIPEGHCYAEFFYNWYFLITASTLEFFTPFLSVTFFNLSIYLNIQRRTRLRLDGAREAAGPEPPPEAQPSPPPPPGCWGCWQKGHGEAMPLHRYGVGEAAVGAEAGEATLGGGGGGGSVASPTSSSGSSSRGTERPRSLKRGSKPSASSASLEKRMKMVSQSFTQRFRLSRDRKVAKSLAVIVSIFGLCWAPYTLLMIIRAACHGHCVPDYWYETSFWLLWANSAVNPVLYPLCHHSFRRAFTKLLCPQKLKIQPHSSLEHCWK
Histamine H3 receptor (Rattus norvegicus, UniProt Q9QYN8), sequence (Q9QYN8 whole entry): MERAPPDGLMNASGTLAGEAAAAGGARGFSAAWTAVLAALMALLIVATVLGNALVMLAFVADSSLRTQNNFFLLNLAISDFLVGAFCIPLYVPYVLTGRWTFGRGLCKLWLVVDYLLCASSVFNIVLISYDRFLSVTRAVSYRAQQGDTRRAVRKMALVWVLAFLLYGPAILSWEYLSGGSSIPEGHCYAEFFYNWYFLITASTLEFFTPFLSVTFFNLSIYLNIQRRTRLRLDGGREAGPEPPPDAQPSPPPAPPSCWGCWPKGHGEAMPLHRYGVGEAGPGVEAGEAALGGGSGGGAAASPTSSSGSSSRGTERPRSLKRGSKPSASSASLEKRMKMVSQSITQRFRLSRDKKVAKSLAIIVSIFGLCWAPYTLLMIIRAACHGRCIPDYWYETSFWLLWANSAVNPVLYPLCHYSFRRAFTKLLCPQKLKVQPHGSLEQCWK

Ki [1] [nM] | Ki [2] [nM] | Ki [3] [nM] | Ki [4] [nM] | Ki [5] [nM] | Structure (SMILES)
2.51 | 1.74 | 6.6 | 15700 | 3780 | c1ccc2c(NCCCN3CCCC3)c3c(nc2c1)CCCCC3
> 1000 | 724 |  |  |  | CN1CCN(CCC#Cc2c3c(nc4ccccc24)CCCCC3)CC1
18.2 | 6.61 | 6.6 | 4080 | 1730 | CN1CCCC1CCNc1c2c(nc3ccccc13)CCCCC2 (stereo not drawn)
97.7 | 51.3 |  |  |  | CN1CCN(CCCNc2c3c(nc4ccccc24)CCCCC3)CC1
> 1000 | > 1000 |  |  |  | CC(C)(C)OC(=O)N1CCCN(c2c3c(nc4ccccc24)CCCCC3)CC1
407 | 79.4 | 80 | 1000 | 3210 | C(#Cc1c2c(nc3ccccc13)CCCCC2)CCN1CCCCC1
646 | 214 |  |  |  | C(#Cc1c2c(nc3ccccc13)CCCCC2)CCN1CCCC1
51.3 | 46.8 |  |  |  | CC(C)(C)OC(=O)N[C@H]1[C@@H]2CN(CCCNc3c4c(nc5ccccc35)CCCCC4)C[C@@H]21
> 1000 | > 1000 |  |  |  | c1ccc2c(N3CCCNCC3)c3c(nc2c1)CCCCC3
275 | 87.1 |  |  |  | C(=C/c1c2c(nc3ccccc13)CCCCC2)/CCN1CCCCC1
> 1000 | > 1000 |  |  |  | CC(C)(C)OC(=O)N1CCN(c2c3c(nc4ccccc24)CCCCC3)CC1

The remaining lines, values behind:

Structure (SMILES) | Ki [1] [nM] | Ki [2] [nM] | Ki [3] [nM] | Ki [4] [nM] | Ki [5] [nM]
CN(C)CCCNc1c2c(nc3c1CCCC3)CCCCC2 | 355 |  |  |  | 
N[C@@H]1[C@H]2CN(CCCNc3c4c(nc5ccccc35)CCCCC4)C[C@@H]12 | 74.1 | 44.7 |  |  | 
CN(C)CCC#Cc1c2c(nc3ccccc13)CCCCC2 | 692 | 389 |  |  | 
c1ccc2c(NCCCn3ccnc3)c3c(nc2c1)CCCCC3 | > 1000 | > 1000 |  |  | 
C(#Cc1c2c(nc3ccccc13)CCCCC2)CCN1CCCCCC1 | > 1000 | 437 |  |  | 
c1ccc2c(NCCCN3CCOCC3)c3c(nc2c1)CCCCC3 | 398 | 759 |  |  | 
CN(C)CCCNc1c2c(nc3ccccc13)CCCCC2 | 21.9 | 9.77 | 9.7 | 7700 | 10100
CC(=O)N(CCCN(C)C)c1c2c(nc3ccccc13)CCCCC2 | > 1000 | 1000 |  |  | 
C(#Cc1c2c(nc3ccccc13)CCCCCC2)CCN1CCCCC1 | 646 | 158 |  |  | 
CN(C)CCNc1c2c(nc3ccccc13)CCCCC2 | 148 | 47.9 |  |  | 
OC[C@H]1CCN(CCC#Cc2c3c(nc4ccccc24)CCCCC3)C1 | > 1000 | 955 |  |  | 
C(#Cc1c2c(nc3ccccc13)CCCCC2)CCN1CCOCC1 | > 1000 | > 1000 |  |  | 
CN(C)CCCCNc1c2c(nc3ccccc13)CCCCC2 | 38.9 | 43.7 |  |  | 
OC[C@@H]1CCN(CCC#Cc2c3c(nc4ccccc24)CCCCC3)C1 | 617 | 251 |  |  | 
CN(C)CCCNc1c2c(nc3ccccc13)CCSC2 | 58.9 | 53.7 |  |  | 
